In US9469650B2, “Melampomagnolide B derivatives” (BOARD OF TRUSTEES OF THE UNIVERSITY OF ARKANSAS, priority 2013, dated 2016):

What was measured:
AML 052308 cells = test: cells; details: read-out: LC50
Text: Derivatives were screened for antileukemic activity against AML cells in culture (See FIGS. 1-7).

C=C1C(=O)O[C@H]2[C@H]1CC/C(COC(=O)NCCO)=C\CC[C@@]1(C)O[C@@H]21 [JVM 2-50]
CC50 (NCI-H322M): > 100 µM | CC50 (RPMI-8226): > 100 µM | CC50 (RXF 393): 62.5 µM | CC50 (BT-549): 42.9 µM | CC50 (MCF7): 75.5 µM | CC50 (COLO 205): 50.7 µM | CC50 (SNB-19): > 100 µM | CC50 (SK-MEL-2): 94.4 µM | CC50 (MALME-3M): 73.3 µM | CC50 (DU-145): 52.8 µM | CC50 (OVCAR-3): 47.3 µM | CC50 (ACHN): 71.1 µM | CC50 (MDA-MB-468): 49.1 µM | CC50 (M14): 88.3 µM | CC50 (SF-539): 56.2 µM | CC50 (SN12C): > 100 µM

C=C1C(=O)O[C@H]2[C@H]1CC/C(COC(=O)OCCCN1CCCCC1)=C\CC[C@@]1(C)O[C@@H]21 [JVM 2-26]
CC50 (AML 052308 cells): 5 µM

C=C1C(=O)O[C@H]2[C@H]1CC/C(COC(=O)N1CCN(C)CC1)=C\CC[C@@]1(C)O[C@@H]21 [JVM 2-44]
CC50 (NCI-H322M): > 100 µM | CC50 (RXF 393): 48.6 µM | CC50 (BT-549): 49 µM | CC50 (MCF7): 60.1 µM | CC50 (COLO 205): 64.8 µM | CC50 (SNB-19): > 100 µM | CC50 (KM12): 68.9 µM | CC50 (SK-MEL-2): 75.3 µM | CC50 (HCT-116): 48 µM | CC50 (MALME-3M): 65.4 µM | CC50 (DU-145): 48.7 µM | CC50 (OVCAR-3): 42.3 µM | CC50 (ACHN): 52.6 µM | CC50 (MDA-MB-468): 48.7 µM | CC50 (M14): 69.9 µM | CC50 (SF-539): 55.1 µM | CC50 (SN12C): 69.7 µM

C=C1C(=O)O[C@H]2[C@H]1CC/C(COC(=O)NCCN1CCCCC1)=C\CC[C@@]1(C)O[C@@H]21 [JVM 2-13]
CC50 (NCI-H322M): 61.1 µM | CC50 (RXF 393): 37.3 µM | CC50 (BT-549): 44.3 µM | CC50 (MCF7): 62.5 µM | CC50 (COLO 205): 7.75 µM | CC50 (SNB-19): 73.1 µM | CC50 (KM12): 61.6 µM | CC50 (SK-MEL-2): 69.7 µM | CC50 (MALME-3M): 50.6 µM | CC50 (DU-145): 42 µM | CC50 (ACHN): 45.6 µM | CC50 (MDA-MB-468): 28.5 µM | CC50 (M14): 55.1 µM | CC50 (SF-539): 48.4 µM | CC50 (SN12C): 58.5 µM

C=C1C(=O)O[C@H]2[C@H]1CC/C(COC(=S)n1ccnc1)=C\CC[C@@]1(C)O[C@@H]21 [JVM 66]
CC50 (AML 052308 cells): 2.6 µM

C=C1C(=O)O[C@H]2[C@H]1CC/C(COC(=O)NC)=C\CC[C@@]1(C)O[C@@H]21 [JVM 2-57]
CC50 (NCI-H322M): > 100 µM | CC50 (RPMI-8226): 90.3 µM | CC50 (RXF 393): 44.1 µM | CC50 (BT-549): 33.1 µM | CC50 (MCF7): 47.7 µM | CC50 (SNB-19): > 100 µM | CC50 (KM12): 55.9 µM | CC50 (SK-MEL-2): 69 µM | CC50 (HCT-116): 33.6 µM | CC50 (MALME-3M): 55 µM | CC50 (DU-145): 39.3 µM | CC50 (OVCAR-3): 34.3 µM | CC50 (ACHN): 43.3 µM | CC50 (MDA-MB-468): 49 µM | CC50 (M14): 66.7 µM | CC50 (SF-539): 42.9 µM | CC50 (SN12C): 78.1 µM

C=C1C(=O)O[C@H]2[C@H]1CC/C(COC(=O)N1CCC(F)(F)CC1)=C\CC[C@@]1(C)O[C@@H]21 [JVM 2-66]
CC50 (NCI-H322M): 54.6 µM | CC50 (RPMI-8226): > 100 µM | CC50 (RXF 393): 5.33 µM | CC50 (BT-549): 29.5 µM | CC50 (MCF7): 26.4 µM | CC50 (COLO 205): 8.44 µM | CC50 (SNB-19): 62.7 µM | CC50 (KM12): 54.5 µM | CC50 (SK-MEL-2): 37 µM | CC50 (HCT-116): 7.75 µM | CC50 (MALME-3M): 21.6 µM | CC50 (DU-145): 28.9 µM | CC50 (OVCAR-3): 9.62 µM | CC50 (MDA-MB-468): 11.5 µM | CC50 (M14): 41.7 µM | CC50 (SF-539): 12.3 µM | CC50 (SN12C): 37.7 µM

C=C1C(=O)O[C@H]2[C@H]1CC/C(COC(=O)CCC(=O)N1CCC(C)CC1)=C\CC[C@@]1(C)O[C@@H]21 [JVM 2-70]
CC50 (NCI-H322M): 65.1 µM | CC50 (RPMI-8226): > 100 µM | CC50 (RXF 393): 9.41 µM | CC50 (BT-549): 29.3 µM | CC50 (MCF7): 64.1 µM | CC50 (COLO 205): 31.9 µM | CC50 (SNB-19): 63.4 µM | CC50 (KM12): 56.6 µM | CC50 (SK-MEL-2): 61 µM | CC50 (HCT-116): 11.9 µM | CC50 (MALME-3M): 53.6 µM | CC50 (DU-145): 45.9 µM | CC50 (OVCAR-3): 32.5 µM | CC50 (ACHN): 43.5 µM | CC50 (M14): 49.3 µM | CC50 (SN12C): 51.9 µM

C=C1C(=O)O[C@H]2[C@H]1CC/C(COC(=O)Nc1n[nH]c(SC)n1)=C\CC[C@@]1(C)O[C@@H]21 [JVM 64, ((1aR,7aS,10aS,10bS,E)-1a-methyl-8-methylene-9-oxo-1a,2,3,6,7,7a,8,9,10a,10b-decahydrooxireno[2′,3′:9,10]cyclodeca[1,2-b]furan-5-yl)methyl-(5-(methylthio)-1H-1,2,4-triazol-3-yl)carbamate]
CC50 (AML 052308 cells): 7.4 µM
